{"source": "patent US20160010138A1", "about": "“RAPID DETERMINATION OF MICROBIAL DROWTH AND ANTIMICROBIAL SUSEPTABILITY” (priority 2013, published 2016)", "key": {"[1]": {"tested_on": "Acinetobacter spp. (ABCC)", "assay": "MADM system resistance phenotype tests on respiratory specimens", "format": "cell-based, Acinetobacter sp.", "settings": "ABCC-positive specimen (specimen name not given)", "experimental": "(§1) These specimens were prepped for introduction into the MADM system. The system performed quantitative ID for Staphylococcus aureus (STAU), Pseudomonas aeruginosa (PSAE), and Acinetobacter spp. (ABCC). Concurrent quantitative culture was performed on specimens. The MADM system performed resistance phenotype tests on STAU-containing specimens for cefoxitin (FOX) MRSA phenotyping and clindamycin (CLI) resistance. The system tested ABCC- and PSAE-containing specimens for amikacin (AN) and imipenem (IMP) resistance.\n(§2) Specimen preparation used a brief procedure to release bacteria, reduce imaging background, and suspend bacteria in a low ionic strength buffer. […] The remaining 62 specimens were tested using the MADM system.\n(§3) 20 μL samples of prepared specimen were pipetted into independent flowcell channels and a low-voltage electrical field was applied for 5 minutes. The electrical field concentrated bacteria onto a functional surface coating that immobilized the bacteria on the lower flowcell surface. Each flowcell channel received only one type of test reagent solution that contained a selective agent if required (only for channels used to test AB, sulbactam 32 μg/mL).\n(§4) The instrument acquired images at 10-minutes intervals for 180 minutes, using 10 fields of view in each flowcell channel through a 20× objective. Imaging used darkfield illumination. Identification variables included response to selective agents (AB with sulbactam), cell morphology, growth morphology, and growth rate.\n(§5) Identification algorithms applied to each individual immobilized bacterial cell. The system measured the amount of change in mass over time to compute growth rates. Identification consisted of computing and combining probability scores for morphology, response to selective media, and growth rates to produce a receiver operating characteristic curve (ROC) to derive classification criteria."}, "[2]": {"tested_on": "Pseudomonas aeruginosa (PSAE)", "assay": "MADM system resistance phenotype tests on respiratory specimens", "format": "cell-based", "settings": "ID PSAE", "experimental": "as §1, §2, §3, §4, §5"}, "[3]": {"tested_on": "Acinetobacter spp. (ABCC)", "settings": "ABCC-positive specimen (specimen name not given); culture result", "description": "(§6) A total of 281 de-identified remnant respiratory specimens were collected from hospital and commercial sources. The specimens included 25 endotracheal aspirates (ETA) of unknown age obtained from a specimen vendor. Also included were 230 mini-bronchoalveolar lavage (mini-BAL) and 26 ETA specimens obtained from Denver Health Medical Center (DHMC). DHMC specimens were 7-21 days old. AST results were available for all mini-BAL specimens but not for ETA. Accompanying reports also included semi-quantitative ID used to select 92 bacteria-positive specimens for analysis using the MADM system. Targets included Pseudomonas aeruginosa, Acinetobacter baumannii complex, and Staphylococcus aureus. Controls used standard culturing methods (Cx).\nas §1"}, "[4]": {"tested_on": "Pseudomonas aeruginosa (PSAE)", "format": "cell-based", "settings": "ID PSAE, culture result", "description": "as §6, §1"}, "[5]": {"tested_on": "STAU", "assay": "MADM (BACcel) phenotype/sensitivity by growth analysis, surveillance mini-BAL", "format": "cell-based, S. aureus", "settings": "Spec# 008-D7, BACcel ID STAU, 1.11 × 10^6 CFU/ml", "experimental": "(§7) Adult MICU patients with identified surrogate were included within 72 hours of intubation and if anticipated to require MV for >48 h. Moribund state or pregnancy were exclusions. Surveillance mini-BAL (Combicath, Plastimed) was performed on Day 1, 3, 5, 7 and 10 of MV. Samples were split and processed for both a) routine respiratory quantitative microbiological culture and sensitivity assays (>48 h result availability) and b) rapid (<8 hour) flowcell/surface-capture assays using the MADM system. Viable microorganisms were identified using growth analysis enhanced by a focused VAP antibody panel (S. aureus, P. aeruginosa, A. baumannii). Untypable organisms were also reported. Sensitivity was assessed using growth analysis. Attending physicians were blinded to MADM system results.\n(§8) BAL sample were prepared, removing debris and separating microorganisms from other sample material. Sample microorganisms were introduced into a multichannel fluidic cassette as described elsewhere herein. Bacteria were concentrated and retained on the lower surface of all flowcells using low-voltage electrical field (5 min) Antibody labeling of bacteria in flowcells was used to aid identification.\n(§9) The automated digital microscopy system was used to perform darkfield imaging of 10 fields of view every 10 minutes for 180 minutes in each flowcell channel. Initial epifluorescence imaging was also performed for antibody detection. […] Identification consisted of probability scores based on microorganism morphology and growth rates. Antibody labeling identification data was also incorporated. Observed microorganisms were then classified as STAU, PSAE, or non-target. Antibiotic responses were used to aid identification when appropriate. Quantitation was performed by counting identified microorganisms and computing original specimen CFU/mL."}, "[6]": {"tested_on": "Staphylococcus aureus (STAU)", "assay": "MADM system resistance phenotype tests on respiratory specimens", "format": "cell-based", "settings": "for resistance phenotype result (S/R), MADM: ID STAU, MRSA by FOX", "experimental": "(ABCC). Concurrent quantitative culture was performed on specimens.\nSpecimen preparation used a brief procedure to release bacteria, reduce imaging background, and suspend bacteria in a low ionic strength buffer. […] We rejected 10 samples with heavy interfering background when dilution to OD600=0.3 yielded organism counts inadequate for analysis. We rejected 7 samples for other technical deficiencies. The remaining 62 specimens were tested using the MADM system.\nas §3, §4, §5"}, "[7]": {"tested_on": "Steno", "assay": "MADM (BACcel) phenotype/sensitivity by growth analysis, surveillance mini-BAL", "format": "cell-based, S. maltophilia", "experimental": "as §7, §8, §9"}, "[8]": {"tested_on": "Staphylococcus aureus (SA)", "assay": "Same-day blood culture MADM drug resistance phenotyping", "format": "cell-based", "settings": "SA in 6 μg/mL FOX, dark-field images over 3 hours (FIG. 10B)", "experimental": "The MADM system used a custom microscope and pipetting robot, plus an evaluation system, as described herein. 32-channel disposable cassettes (FIG. 4A) enabled live microorganism immobilization for microscopy and fluid exchanges for different test agents. The microscope scanned 40 image fields in each flowcell channel, each channel having organisms extracted from about 3.5 μL of prepared inoculum.\nSimulated blood specimens consisted of isolates spiked into 10 mL each of 29 aliquots of two short-fill CPD blood bank bags to make approximately 5 CFU/mL of bacterial target species, confirmed by quantitative culture. Spiked isolates included 14 Staphylococcus aureus (SA), 3 Pseudomonas aeruginosa (PA), or 12 non-target Gram-negative bacilli species. Dilution of each sample with 30 mL of modified TSB culture medium promoted growth. 20 additional control aliquots contained no spikes. 4-hour incubation at 35° C., followed with brief spin cleanup, ended with pellet resuspension into an electrokinetic buffer to make 1 mL samples for MADM system analysis. 20 μL sample aliquots were then pipetted into 14 cassette flowcells. A 5-minute low-voltage electrokinetic capture was performed to concentrate microorganisms on the lower surface of each flowcell where a capture coating immobilized the bacterial cells. […]"}, "[9]": {"tested_on": "Enteric", "assay": "MADM (BACcel) phenotype/sensitivity by growth analysis, surveillance mini-BAL", "format": "cell-based", "settings": "Spec# 005-D7, BACcel ID Enteric, 1.26 × 10^5 CFU/ml", "experimental": "as §7\nBAL sample were prepared, removing debris and separating microorganisms from other sample material. Sample microorganisms were introduced into a multichannel fluidic cassette as described elsewhere herein. […]\nThe automated digital microscopy system was used to perform darkfield imaging of 10 fields of view every 10 minutes for 180 minutes in each flowcell channel. […] Quantitation was performed by counting identified microorganisms and computing original specimen CFU/mL."}, "[10]": {"tested_on": "E. coli", "assay": "Membrane potential indicator, red:green fluorescence ratio", "format": "cell-based", "settings": "O/N refrigerator stock vs CCCP-treated E. coli", "description": "(§10) Physiologic indicators of active bacteria include indicators of growth, responsiveness to external stimulus, transcription, translation, energy dependent activity, enzyme activity, and an intact permeability barrier. The indicators tested experimentally were grouped according to the following functional categories of physiologic states to which they are responsive, which included indicators of respiratory and metabolic activity, and membrane integrity.\nActive bacterial cells maintain a proton gradient across their cell membranes, creating a membrane potential that may be measured using fluorescent dyes. However, the dyes used in this study to evaluate membrane potential are toxic to bacteria and can only be used as an endpoint assay.\nDiOC2(3) (Molecular Probes) is a dye that fluoresces in the red channel when it is highly concentrated and self-associates in cells with an intact membrane potential. […] The red:green fluorescence ratio is used to normalize the fluorescence results of cells with differing sizes. Carbonylcyanide-m-chlorophenylhydrazone (CCCP) is a proton ionophore that disrupts the proton gradient and was used to treat E. coli cells in an experimental sample that was compared to an untreated overnight refrigerator stock."}, "[11]": {"tested_on": "H. influenzae", "assay": "Respiratory/metabolic activity indicator labeling (2-NBDG uptake)", "format": "cell-based", "settings": "overnight refrigerator culture, viability independently verified", "description": "as §10\n(§11) 2-NBDG (Molecular Probes) is a fluorescent derivative (green channel) of D-glucose that is internalized by active bacteria."}, "[12]": {"tested_on": "S. maltophilia", "assay": "Respiratory/metabolic activity indicator labeling (2-NBDG uptake)", "format": "cell-based", "settings": "overnight refrigerator culture; negative control (does not metabolize glucose)", "description": "as §10, §11"}, "[13]": {"tested_on": "K. pneumoniae", "assay": "Respiratory/metabolic activity indicator labeling (2-NBDG uptake)", "format": "cell-based", "settings": "overnight refrigerator stock culture; approximately 1 min of exposure to 1 μM", "description": "as §10, §11"}, "[14]": {"tested_on": "S. aureus", "assay": "Respiratory/metabolic activity indicator labeling (2-NBDG uptake)", "format": "cell-based", "settings": "overnight refrigerator culture, viability independently verified", "description": "as §10, §11"}, "[15]": {"tested_on": "E. coli", "assay": "Respiratory/metabolic activity indicator labeling (2-NBDG uptake)", "format": "cell-based", "settings": "overnight refrigerator stock culture; approximately 1 min of exposure to 1 μM", "description": "as §10, §11"}}, "note": "Where two headings read alike, the source gives them in different places.", "data": [{"smiles": "C[C@@H](O)[C@H]1C(=O)N2C(C(=O)O)=C(SCCN=CN)C[C@H]12", "note": "[IMP, imipenem]", "values": [{"measurement": "resistance phenotype result (S/R), MADM", "setting": "[1]", "result": "S"}, {"measurement": "resistance phenotype result (S/R), MADM", "setting": "[2]; specimen DH 430, Mini-BAL", "result": "S"}, {"measurement": "resistance phenotype result (S/R), MADM", "setting": "[2]; specimen DH 554, BAL", "result": "S"}, {"measurement": "resistance phenotype result (S/R), MADM", "setting": "[2]; specimen DH 641, Mini-BAL", "result": "S"}, {"measurement": "resistance phenotype result (S/R), Cx", "setting": "[3]", "result": "S"}, {"measurement": "resistance phenotype result (S/R), Cx", "setting": "[4]; specimen DH 430, Mini-BAL", "result": "S"}, {"measurement": "resistance phenotype result (S/R), Cx", "setting": "[4]; specimen DH 554, BAL", "result": "S"}, {"measurement": "resistance phenotype result (S/R), Cx", "setting": "[4]; specimen DH 641, Mini-BAL", "result": "S"}]}, {"smiles": "CO[C@@]1(NC(=O)Cc2cccs2)C(=O)N2C(C(=O)O)=C(COC(N)=O)CS[C@@H]21", "note": "[FOX, cefoxitin]", "values": [{"measurement": "Phenotype, sensitivity", "setting": "[5]", "result": "FOX - R"}, {"measurement": "resistance phenotype result (S/R), MADM", "setting": "[6]; specimen DH 425, Mini-BAL", "result": "R"}, {"measurement": "resistance phenotype result (S/R), MADM", "setting": "[6]; specimen DH 427, Mini-BAL", "result": "S"}, {"measurement": "resistance phenotype result (S/R), MADM", "setting": "[6]; specimen DH 439, Mini-BAL", "result": "R"}, {"measurement": "resistance phenotype result (S/R), MADM", "setting": "[6]; specimen DH 440, BAL", "result": "S"}, {"measurement": "resistance phenotype result (S/R), MADM", "setting": "[6]; specimen DH 457, BAL", "result": "S"}, {"measurement": "resistance phenotype result (S/R), MADM", "setting": "[6]; specimen DH 485, BAL", "result": "S"}, {"measurement": "resistance phenotype result (S/R), MADM", "setting": "[6]; specimen DH 509, BAL", "result": "S"}, {"measurement": "resistance phenotype result (S/R), MADM", "setting": "[6]; specimen DH 514, Mini-BAL", "result": "S"}, {"measurement": "resistance phenotype result (S/R), MADM", "setting": "[6]; specimen DH 543, BAL", "result": "S"}, {"measurement": "resistance phenotype result (S/R), MADM", "setting": "[6]; specimen DH 550, BAL", "result": "S"}, {"measurement": "resistance phenotype result (S/R), MADM", "setting": "[6]; specimen DH 556, Mini-BAL", "result": "S"}, {"measurement": "resistance phenotype result (S/R), MADM", "setting": "[6]; specimen T12, ETA", "result": "R"}, {"measurement": "MRSA/MSSA call by FOX in the MADM system", "setting": "[6]; the one discordant STAU sample", "result": "MRSA"}, {"measurement": "Phenotype, sensitivity (growth in antibiotic)", "setting": "[7]; Spec# 006-D1, BACcel ID Steno, 7.68 × 10^5 CFU/ml", "result": "growth, TZP-"}, {"measurement": "Phenotype, sensitivity (growth in antibiotic)", "setting": "[7]; Spec# 006-D3, BACcel ID Steno, 1.60 × 10^4 CFU/ml", "result": "growth, TZP-"}, {"measurement": "clone growth in drug", "setting": "[8]", "result": "growth indicating MRSA phenotype"}, {"measurement": "Phenotype, sensitivity (growth in antibiotic)", "setting": "[9]", "result": "all growth"}]}, {"smiles": "CCN1/C(=C/C=C/c2oc3ccccc3[n+]2CC)Oc2ccccc21.[I-]", "note": "[DiOC2(3)]", "values": [{"measurement": "red:green fluorescence ratios", "setting": "[10]", "result": "No significant difference"}]}, {"smiles": "O=[N+]([O-])c1ccc(N[C@H]2C(O)O[C@H](CO)[C@@H](O)[C@@H]2O)c2nonc12", "note": "(some centres unmarked) [2-NBDG]", "values": [{"measurement": "fluorescent labeling", "setting": "[11]", "result": "did not fluoresce"}, {"measurement": "fluorescent labeling", "setting": "[12]", "result": "did not fluoresce"}, {"measurement": "fluorescent labeling", "setting": "[13]", "result": "fluorescently labeled"}, {"measurement": "fluorescent labeling", "setting": "[14]", "result": "did not fluoresce"}, {"measurement": "fluorescent labeling", "setting": "[15]", "result": "fluorescently labeled"}]}]}
